# Test results from US20190389958A1, “ANTI-CXCR4 ANTIBODIES” (MSM Protein Technologies, Inc., priority 2017, published 2019).
# Assays:
# RA1 cells [1] = assay: Antibody-dependent cell-mediated cytotoxicity (ADCC), LDH release (Example 10); type: cell-based, human; settings: E:T ratio 20:1
# Protocol: ADCC was measured with RA1 cells as the target cells (T) and using the CytoTox 96® Non-Radioactive Cytotoxicity Assay (Promega Corp., Fitchburg, Wis.)), which assay measures lactate dehydrogenase (LDH) release. A round-bottom 96-well culture plate was set up with the following control and experimental wells (100 microliter final volumes):
# a. RA1 cells (for target cell spontaneous LDH release control) b. RA1 cells (for target cell maximum LDH release control) c. Culture medium (RPMI 1640 Medium (1X) without phenol red) used for volume correction control d. Culture medium (for culture medium background control) e. RA1 plus effector cells (E) (for target plus effector cell spontaneous LDH release control) f. Experimental wells with effector and target cells (10^5) with serial dilutions of each test IgG or without test IgG.
# The plates were centrifuged at 1600 rpm for 2 minutes and incubated at 37° C. for 4 hours. One hour prior to supernatant harvest, 20 microliters of Lysis Solution (10×) were added to the conditions b) and c). The plates were centrifuged at 1600 rpm for 2 minutes, and 50 microliters of the supernatant from each well of the assay plates were transferred to corresponding wells of a flat-bottom 96-well enzymatic assay plate. Substrate Mix (50 microliters) was added to each well of the latter plate, and the plate (protected from light) was incubated for 30 minutes at room temperature. Finally, 50 microliters of Stop Solution were added to each well, and absorbance (OD values) was measured at 490 nm. Each condition was tested in triplicates.
# Preliminary experiments had been conducted in order to determine the optimal E:T ratio. The data shown below were obtained at a 20:1 E:T ratio with 10^5 RA1 target cells. The effector cells used in this study were prepared as follows: human peripheral blood mononuclear cells (PBMCs) obtained from a healthy donor were isolated by means of density gradient centrifugation using Lymphocyte Separation Medium (ref. J15-004, Invitrogen Corp., Carlsbad, Calif.). PBMCs at 2×10^6 per mL were cultured for two days in RPMI 1640 with 10% FCS, penicillin/streptomycin and 100 units per mL of human recombinant IL-2 (obtained from Roussel-Uclaf) in a 37° C. humidified incubator (5% CO2).
# ADCC percentages obtained at different concentrations of test IgGs were calculated with the formula % ADCC=(f−e)/(b−a)×100, i.e., % ADCC=(OD of Target+Effector cells +/−Test Mab −OD of Spontaneous Release of Target+Effector cells)/(OD Maximal Release Target cells −OD Spontaneous Release of Target cells)×100.
# RA1 cells [2] = assay: Anti-tumor activity in a SCID/RA1 xenograft model of Burkitt's lymphoma (Example 11); type: in vivo, SCID mice; settings: for Mean Survival / Median Survival / Mice alive at the end of the study = day 81 / % Increased life span: 10 mg/kg, IV, Q4D × 6; for % Increased life span: ILS % = [(T-C)/C]×100 of median survival; for survival of mice (in words): SCID mice with RA1 cells
# Protocol: The therapeutic effect of test antibodies was evaluated in an animal model of Burkitt's lymphoma. In the model used, systemic cancer in SCID mice causes hind limb paralysis and infiltrates all major organs.
# Forty-eight hours before tumor cell injection, female SCID mice (7-9 weeks old, weighing 17-22 g) were irradiated with a γ-source (1.8 Gy, ^60Co). […] The tumor bearing mice were distributed on D4 into 10 groups of 10 mice each based on body weight using Vivo Manager® software (Biosystemes, Dijon, France). […] Treatment started on D4: mice were administered intravenously a 5 mg/kg or a 10 mg/kg dose of test antibody on days 4, 8, 12, 16, 20 and 24. The vehicle for injection was 10 mM Na-Citrate, 150 mM NaCl, 50 mM Arginine (pH 5.5). Body weights were measured and recorded twice weekly. Mean survival time was calculated for each group as the mean of the day of death, and median survival time was calculated for each group as the median of the day of death. The efficacy of each test antibody was judged by the increased life span value (ILS). ILS % was expressed as follows: ILS %=[(T-C)/C]×100. T was the median of the survival times of animals treated with each test antibody, and C was the median survival time of control animals treated with vehicle.
# Human U937 cells = assay: Inhibition of SDF-1alpha-induced chemotaxis/cell migration (Example 9); type: cell-based; settings: U-937, SDF-1alpha 3 nM, AMD3100 1 μM
# Protocol: Human U937 cells were grown in RPMI-1640 medium with 10% FCS, then washed twice and incubated in serum-free RPMI-1640 at 37° C. for 3 hours (5% CO2). Starved […] cells were re-suspended in medium for chemotaxis (RPMI-1640 with 0.3% BSA) at 3*10^5 cells per ml and • a) incubated for 30 min at room temperature (not-pre-treated positive control for assay); • b) pre-treated with AMD 3100 at 1 μM concentration (positive control for chemotaxis inhibition) for 30 min at room temperature; or • c) pre-treated with a test IgG at 100 nM concentration for 30 min at room temperature.
# Respective not-pre-treated or pre-treated U937 cells were then placed into the top wells of a microchemotaxis chamber (15,000 cells per well).
# A polycarbonate filter with a […] pore diameter separated top and bottom chambers.
# After incubation for one hour at 37° C. (5% CO2), the cell suspensions were removed from the top wells, and the wells were washed once with PBS. […] The number of migrated cells in each well was determined using a Guava PCA-96 cytometer. […]
# Maximal SDF-1 induced migration was calculated as the difference in the number of migrated cells between conditions (al) and (a) in the Table immediately above. The percentage of migration inhibition for a test antibody was then calculated by reference to this maximal migration.
Molecule,ADCC percentage (RA1 cells [1]; 0.0001 μg/mL) [%],ADCC percentage (RA1 cells [1]; 0.001 μg/mL) [%],ADCC percentage (RA1 cells [1]; 0.01 μg/mL) [%],ADCC percentage (RA1 cells [1]; 0.1 μg/mL) [%],ADCC percentage (RA1 cells [1]; 1 μg/mL) [%],Mean Survival (RA1 cells [2]) [days],Median Survival (RA1 cells [2]) [days],Mice alive at the end of the study = day 81 (RA1 cells [2]),% Increased life span (RA1 cells [2]) [%],survival of mice (in words) (RA1 cells [2]),inhibition at 1 µM (Human U937 cells) [%]
"Rituximab: CD20 antibody Mabthera, used as positive control [reference compound]",3,8,27,46,60,63,62,0/10,130,lived significantly longer than control mice,
Xolair: isotypic control [reference compound],,,,,,29,27,0/10,0,died of disseminated disease with severe weight loss or were terminated because they were moribund within four weeks,
c1cc(CN2CCCNCCNCCCNCC2)ccc1CN1CCCNCCNCCCNCC1 [AMD3100],,,,,,,,,,,98
